In the OPERA property sets (Mansouri et al. 2018):

Details: for log10 biotransformation half-life (days) / log10 BCF: fish

Structure (SMILES)	boiling point	melting point	also measured
[C-]#[N+]CCCC	120 °C		
O=C(OCC(F)(F)F)C(F)(F)F	55 °C		
C=C(Cl)CCl	94 °C		log10 vapour pressure (mmHg): 1.79
C[C@]12CC[C@H](O[C@@H]3O[C@H](CO[C@@H]4O[C@H](CO)[C@@H](O)[C@H](O)[C@H]4O)[C@@H](O)[C@H](O)[C@H]3O)C[C@@H]1CC[C@@H]1[C@@H]2CC[C@]2(C)[C@@H](C3=CC(=O)OC3)CC[C@]12O		269 °C	
O=[N+]([O-])c1ccccc1Sc1ccccc1		82 °C	
C[Si](Cn1cncn1)(c1ccc(F)cc1)c1ccc(F)cc1		54 °C	log10 Koc (L/kg): 3.22
C[C@]12CC[C@H]3[C@@H](CCC4=C(O)C(=O)CC[C@@H]43)[C@@H]1CC[C@@H]2O		189 °C	
CCN(CC)CCC1(c2ccccc2)C(=O)Oc2ccccc21 (centres undefined)		43.4 °C	
Nc1cc(C(=O)O)ccc1Cl		214 °C	
O=C=NS(=O)(=O)Cl	107 °C	-44 °C	
O=C1CCCCC1	155 °C	-31 °C	log10 Henry constant (atm·m³/mol): -5.05; log10 vapour pressure (mmHg): 0.636; ready biodegradability: readily biodegradable
C[Si](C)(C)[Si](C)(C)C	114 °C	13.5 °C	
Fc1cccc(Br)c1	150 °C		
O=C(O)c1ccccc1Oc1ccccc1	355 °C	113 °C	
CCN(CC)C(=O)/C(Cl)=C(/C)OP(=O)(OC)OC		-45 °C	log10 vapour pressure (mmHg): -4.78
Cc1c(N)cccc1Cl	245 °C	1 °C	
CC(C)(C)C(=O)NNCc1ccccc1		68.5 °C	
CCCCCC(C)=O	151 °C	-35 °C	log10 Henry constant (atm·m³/mol): -3.77; log10 Koa: 4.15; log10 vapour pressure (mmHg): 0.586
O=C(O)c1ccc([N+](=O)[O-])c(O)c1		230 °C	
CC1CCCC2(C)CCCCC12O (centres undefined)	270 °C		
C#CC(C)(O)CC (centres undefined)	120 °C	30.5 °C	log10 vapour pressure (mmHg): 0.72; ready biodegradability: readily biodegradable
CCCCCCCCCCC/C=C\CCCCC(=O)O		29.8 °C	
C[Si]1(C)O[Si](C)(C)O[Si](C)(C)O[Si](C)(C)O[Si](C)(C)O1	210 °C	-38 °C	log10 Henry constant (atm·m³/mol): 1.52; log10 vapour pressure (mmHg): -0.699; log10 biotransformation half-life (days): 2.74
COc1ccc(Cc2cnc(N)nc2N)cc1OC		233 °C	

Structure (SMILES)	boiling point	melting point	also measured
CCOC(=O)C#CC(=O)OCC		1.5 °C	
Cc1ncc(COP(=O)(O)O)c(C=O)c1O		255 °C	
CC(C)c1ccc(Cl)cc1	198 °C	-12.3 °C	
COc1c(OC)c2occc2c2oc(=O)ccc12		119 °C	
Clc1cc(Cl)c(-c2cc(Cl)c(Cl)c(Cl)c2Cl)cc1Cl			log10 Henry constant (atm·m³/mol): -5; log10 Koa: 9.88; log10 vapour pressure (mmHg): -6.01; logP: 7.72
Cc1ccc[nH]1	147 °C	-35.6 °C	
CC(=O)CC(C)C	116 °C	-84 °C	log10 vapour pressure (mmHg): 1.3; ready biodegradability: readily biodegradable
CC(C)(C)c1cccc(C(C)(C)C)c1O	253 °C	39 °C	ready biodegradability: not readily biodegradable
FC(F)C(F)(F)OCC(Cn1cncn1)c1ccc(Cl)cc1Cl (centres undefined)		6 °C	log10 vapour pressure (mmHg): -5.87; log10 biotransformation half-life (days): 1.23
CCC(C)CC(C)(C)CC (centres undefined)	156 °C		
CC(=O)C(=O)O		13.8 °C	log10 Henry constant (atm·m³/mol): -8.49; log10 vapour pressure (mmHg): 0.111
CCCCOc1ccc(C)cc1	230 °C		
O=C(O)CCCCCCCCCCCCCCC(=O)O			ready biodegradability: readily biodegradable
Cc1ccc(OCC(=O)O)cc1		141 °C	
CC(CCC(C)C)=NO	196 °C		
CCCCOCCCC	141 °C		log10 Henry constant (atm·m³/mol): -2.22; log10 Koa: 3.89; log10 vapour pressure (mmHg): 0.779; ready biodegradability: not readily biodegradable; log10 BCF: 1.86; log10 biotransformation half-life (days): -0.25
c1ccc2c(c1)CCC2	178 °C	-51.4 °C	log10 Henry constant (atm·m³/mol): -3.7; log10 biodegradation half-life (days): 0.778; log10 vapour pressure (mmHg): 0.166
O=C(O)C(O)C(=O)O		157 °C	
Nc1ccc(N=O)cc1		174 °C	
CC(=O)Oc1ccc(Br)cc1C(=O)O		60 °C	
OCC(CO)(CCl)CCl		83 °C	
O=Cc1cccc(Cl)c1	214 °C	17.5 °C	
Brc1cc(Br)c(Br)c(Oc2c(Br)c(Br)c(Br)c(Br)c2Br)c1			log10 BCF: 5.68
CS(=O)(=O)c1cc(C(F)(F)F)ccc1C(=O)c1cnoc1C1CC1		140 °C	log10 Henry constant (atm·m³/mol): -9.73; log10 vapour pressure (mmHg): -8.12

Structure (SMILES)	boiling point	melting point	also measured
ClC(Cl)C(Cl)(Cl)C(Cl)Cl	218 °C		
CCOc1ccc(Cc2nc(C)cc3cc(OC)c(OC)cc23)cc1OC		124 °C	
CC(=O)O[C@@H]1C[C@]2(O)[C@H](CC[C@]3(C)[C@@H](c4ccc(=O)oc4)CC[C@@]32O)[C@@]2(C)CC[C@H](O[C@@H]3O[C@H](CO)[C@@H](O)[C@H](O)[C@H]3O)C=C12		169 °C	
O=C(OCc1ccccc1)c1ccccc1C(=O)OCc1ccccc1		44 °C	
CCOP(=O)(OCC)OP(=O)(OCC)OCC			log10 vapour pressure (mmHg): -3.58
Clc1cc(Cl)c2nsnc2c1Cl		122 °C	
O=[N+]([O-])c1cc(N(CCO)CCO)ccc1NCCO		95.5 °C	
Cc1ccncc1C	179 °C	-11 °C	log10 Henry constant (atm·m³/mol): -5.43; log10 vapour pressure (mmHg): 0.092
O=C(O)c1ccccc1C(c1ccc(O)cc1)c1ccc(O)cc1		230 °C	
Cc1ccc(O)cc1Cl	228 °C	55.5 °C	ready biodegradability: not readily biodegradable
Cc1ccc(NC(=S)Nc2ccc(C)cc2)cc1		183 °C	
Nc1cccc2ccc(O)cc12		206 °C	
Nc1cccc(Br)c1	251 °C	18.5 °C	
CC(=O)Oc1ccccc1C(=O)O		135 °C	log10 vapour pressure (mmHg): -4.6; ready biodegradability: readily biodegradable
Cc1ncc(CSSCc2cnc(C)c(O)c2CO)c(CO)c1O		219 °C	
CCC1CCC(=O)O1 (centres undefined)	216 °C	-18 °C	
Clc1[nH]nc2ccccc12		149 °C	
CC(C)(c1ccccc1)c1ccc(Nc2ccc(C(C)(C)c3ccccc3)cc2)cc1			ready biodegradability: not readily biodegradable
CCC(CC)C(=O)O	194 °C	-31.8 °C	log10 vapour pressure (mmHg): -0.726; ready biodegradability: readily biodegradable
c1ccc2c(c1)Cc1ccccc1-2	295 °C	115 °C	log10 Henry constant (atm·m³/mol): -4.02; log10 Koa: 6.79; log10 Koc (L/kg): 3.7; log10 biodegradation half-life (days): 1.64; log10 vapour pressure (mmHg): -3.22; ready biodegradability: not readily biodegradable; log10 BCF: 2.72; log10 biotransformation half-life (days): 0.7
CC1(C)[C@@H]2CC[C@]1(C)[C@H](O)C2			log10 vapour pressure (mmHg): -1.3
O=C(O)CCC(=O)c1ccccc1		118 °C	
Cc1nn(C)c(Oc2ccccc2)c1C=NOCc1ccc(C(=O)OC(C)(C)C)cc1		102 °C	
CCC(C)S (centres undefined)	84.5 °C	-165 °C	log10 vapour pressure (mmHg): 1.91

Structure (SMILES)	boiling point	melting point	also measured
CCCN(CCC)c1c([N+](=O)[O-])cc(S(N)(=O)=O)cc1[N+](=O)[O-]		141 °C	log10 Koc (L/kg): 3.4; ready biodegradability: not readily biodegradable
CCCCCCCC(C)CC (centres undefined)	188 °C	-92.9 °C	
c1ccc2nc3ccccc3nc2c1		176 °C	log10 Koc (L/kg): 3.37
Brc1nccs1	171 °C		
Clc1ccc2ccccc2c1	256 °C	61 °C	log10 Henry constant (atm·m³/mol): -3.49; log10 Koa: 5.8; log10 vapour pressure (mmHg): -1.91; log10 BCF: 3.63
Clc1cccc(-c2c(Cl)c(Cl)cc(Cl)c2Cl)c1Cl			log10 Henry constant (atm·m³/mol): -4.31; log10 vapour pressure (mmHg): -5.96
Cc1ccc(S(=O)(=O)N(C)N=O)cc1		60 °C	
CCCCN(CCCC)N=O			log10 vapour pressure (mmHg): -1.33
CCCCOc1ccc(CC(=O)NO)cc1		154 °C	
Cc1cc([N+](=O)[O-])ccc1Cl	249 °C	42.5 °C	
CCCCNC(C)=O	229 °C		
O=C(O)[C@@H](O)[C@H](O)[C@H](O)[C@@H](O)C(=O)O		126 °C	
CC(=O)c1c(C)c([N+](=O)[O-])c(C(C)(C)C)c([N+](=O)[O-])c1C		136 °C	
CC(C)(C)c1ccc(O)cc1			ready biodegradability: not readily biodegradable; log10 BCF: 1.83; log10 biotransformation half-life (days): -0.87
CCCCC(C)O (centres undefined)	136 °C		log10 vapour pressure (mmHg): 0.396; ready biodegradability: not readily biodegradable
O=C(O)CCCCCCCC(=O)O		106 °C	log10 vapour pressure (mmHg): -7.97
CC(O)CC(F)(F)F (centres undefined)	99.8 °C		
C[C@]12C[C@H](O)[C@H]3[C@@H](CCC4=CC(=O)CC[C@@]43C)[C@@H]1CC[C@@H]2C(=O)CO		181 °C	
NC(=O)c1ccccc1F		118 °C	
CCOc1ccc(Br)cc1	231 °C	4 °C	
Brc1cccc(Br)c1	218 °C	-7 °C	log10 vapour pressure (mmHg): -0.571; log10 BCF: 2.82; log10 biotransformation half-life (days): 1.16
C#CC1(O)CCCCC1	174 °C	31.5 °C	
CCC(c1ccccc1)c1c(O)c2ccccc2oc1=O (centres undefined)		180 °C	
C[C@@H]1CC[C@@]2(OC1)O[C@H]1C[C@H]3[C@@H]4CC[C@H]5C[C@@H](O)CC[C@]5(C)[C@H]4CC[C@]3(C)[C@H]1[C@@H]2C		197 °C	

Structure (SMILES)	boiling point	melting point	also measured
O=C(O)/C=C/CCCCCCCCC(=O)O		166 °C	
C=C[C@](C)(O)CC[C@@H]1[C@@]2(C)CCCC(C)(C)[C@@H]2CC[C@@]1(C)O		97 °C	
Cc1ccc2ccccc2n1	246 °C	-1.5 °C	log10 vapour pressure (mmHg): -2.02
O=C(Nc1ccccc1)c1cc(Cl)ccc1O		211 °C	
C=CCNCC=C	111 °C	-88.4 °C	log10 vapour pressure (mmHg): 1.31
CC(C)OC(=O)c1ccccc1O	238 °C		
COC(CCl)OC	128 °C		
CCC(C)C(O)C(C)CC (centres undefined)	186 °C		
CCCCCCCCCCCCCCCCC(=O)O	364 °C	61.3 °C	log10 vapour pressure (mmHg): -7.21
Nc1ccc2ncccc2c1		114 °C	log10 vapour pressure (mmHg): -4.79
CC(=O)CCC(=O)O	246 °C	33 °C	log10 vapour pressure (mmHg): -2.95
CCOC(=O)CC(=O)C(F)(F)F	133 °C		
CC(C)S(=O)(=O)O		-37 °C	
NC(=O)Nc1cccc(F)c1			log10 Koc (L/kg): 1.77
CCO[Si](CCCN)(OCC)OCC	217 °C		ready biodegradability: not readily biodegradable
CC(N)Cc1ccc(O)cc1 (centres undefined)		126 °C	
Cc1cccc(C)c1[N+](=O)[O-]	226 °C	15 °C	
Clc1cc2c(oc3c(Cl)c(Cl)c(Cl)cc32)c(Cl)c1Cl		240 °C	log10 Koa: 10.9; log10 BCF: 3.98; log10 biotransformation half-life (days): 1.12
CC(C)(C)ON=O	63 °C		
NS(=O)(=O)c1ccc(SCCCCCO)cc1		103 °C	
